Measured values published in patent publication US6416752B1, “Termite bait composition and method” (Whitmire Micro-Gen Research Laboratories, Inc., priority 2001, dated 2002).
Where “and” joins values, the source holds several entries; their conditions need not be identical. Equal entries are not always repeated.

Test system: Reticulitermes virginicus
Assay: standard choice box test of termite bait compositions with killing agents
Assay type: in vivo
Conditions: for Percent Survivorship: choice with untreated pine wood; for Amount of Wood Removed: untreated pine wood blocks; for termites killed: after 25 days
Procedure: The termite bait active ingredients or killing agents diflubenzuron, emamectin benzoate and thiamethoxam were tested for their efficacy. The termite species tested was Reticulitermes virginicus. The methodology employed was the standard “choice box” test used in Example 1 in which termites were released into a central chamber with untreated wood. The central chamber was connected, using Tygon tubing (2 mm I D), with peripheral feeding chambers containing a termite bait composition of the invention (microcrystalline cellulose powder having an average particle size of 20 micrometers and a termite killing agent) or untreated pine wood. Each replicate was given the choice of one gram of the treated cellulose powder or three blocks (1 cm) of untreated pine wood. At the end of 25 or 37 days, the number of live termites was counted. At the same time, the amount of pine wood or termite bait composition consumed was measured. The treatments were replicated two times.

[1] = 25 days in bioassay, 0.05% in microcrystalline cellulose powder

Row | Compound | Percent Survivorship (37 days in bioassay, 0.5% in microcrystalline cellulose powder) | control of termites (after 37 days exposure) | Amount of Cellulose Powder Removed (600 h) | Percent Survivorship [1] | Amount of Wood Removed (25 days, 0.05%) | termites killed | Amount of Cellulose Powder Removed (25 days, 0.05%, one gram of treated cellulose powder offered)
1 | O=C(NC(=O)c1c(F)cccc1F)Nc1ccc(Cl)cc1 [Dimilin, diflubenzuron] | 0.1% and 0% | almost complete control | – | – | – | – | –
2 | CN1COCN(Cc2cnc(Cl)s2)/C1=N\[N+](=O)[O-] [Thiamethoxam, thiamethoxam] | – | – | 0.01 g | 0% | 0 g | 100% | –
3 | emamectin benzoate | – | – | – | 0% | 0 g | 100% | 0.07 g and 0.13 g
